A short description of this data set: recombinant UMI read abundance after kanamycin selection (control-corrected) (log10(CPM+1)); higher = more efficient recombination; extreme values may be limits of the assay; sequences stand for … in AGTGCAGAGAAAATCGGCCAGTTTTCTCTGCCTGCAGTCCGCATGCCGTGGGACCCCTTGGGTTCTAACCTGTTGCCTAGATTTATGCAGCGGACTGCCTTTCTCCCAAAGTGATAAACCGG…AGGTTGGTTTCACT; site = the 11-nt donor. The protocol:
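Pooled E. coli donor-specificity screen for the IS621 bridge recombinase. Each library member carries a reprogrammed 11-nt donor and a full-length LE bridge RNA expressed in cis from the natural promoter, with a paired donor-binding loop (8-nt LDG + 4-nt RDG) and a target-binding loop fixed to T5. It is co-electroporated with a T5 target plasmid; recombinase is induced with 0.07 mM IPTG and recombinants are selected on kanamycin. UMIs are counted as CPM, averaged over two biological replicates and corrected by the unselected control. Molecule = full bridge RNA written as DNA, built from the T5 scaffold: LDG = donor specificity nt 1-8, RDG = reverse complement of nt 8-11.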
For the sequence “ACTAAAACATGGACCGGTTTTCCCGGTAATCCGTATTTGAG (site ACTACAACTCT)”, the “recombinant UMI read abundance (log10)” value came out at 0.0124. As for “ACTAAAACATGGACCGGTTTTCCCGGTAATCCGTATTTGAG (site ACTAGAACTCT)”, the figure is 0.267. On to “ACTAAAACATGGACCGGTTTTCCCGGTAATCCGTATTTGAG (site ACTATAACTCT)”, for which the “recombinant UMI read abundance (log10)” value came to 0.376. As to “ACTAAAGCATGGACCGGTTTTCCCGGTAATCCGTATTTGAT (site ACTAAAGCTAT)”, the “recombinant UMI read abundance (log10)” value was determined as 2.22. The same measure for “ACTAAAGCATGGACCGGTTTTCCCGGTAATCCGTATTTGAT (site CCTAAAGCTAT)”: 0; for “ACTAAAGCATGGACCGGTTTTCCCGGTAATCCGTATTTGAT (site GCTAAAGCTAT)”: 0.0031; for “ACTAAAGCATGGACCGGTTTTCCCGGTAATCCGTATTTGAT (site TCTAAAGCTAT)”: 0.855. The same measure for “ACTACACCATGGACCGGTTTTCCCGGTAATCCGTATTTGGT (site ACTACACCTAC)”: 0; for “ACTACCTCATGGACCGGTTTTCCCGGTAATCCGTATTTGTT (site ACTACCTCTAA)”: 1.19.

Regarding “ACTACTGCATGGACCGGTTTTCCCGGTAATCCGTATTTGCC (site ACTACTGCTGG)”, the “recombinant UMI read abundance (log10)” value amounted to 1.54. As to “ACTACTGCATGGACCGGTTTTCCCGGTAATCCGTATTTGCC (site CCTACTGCTGG)”, the “recombinant UMI read abundance (log10)” value was found to be 1.45.

With “ACTACTGCATGGACCGGTTTTCCCGGTAATCCGTATTTGCC (site GCTACTGCTGG)”, the “recombinant UMI read abundance (log10)” value amounted to 0.946. The same measure for “ACTACTGCATGGACCGGTTTTCCCGGTAATCCGTATTTGCC (site TCTACTGCTGG)”: 1.03. Regarding “ACTAGACCATGGACCGGTTTTCCCGGTAATCCGTATTTGAG (site ACTAGAACTCT)”, the “recombinant UMI read abundance (log10)” value is 0.103. With “ACTAGACCATGGACCGGTTTTCCCGGTAATCCGTATTTGAG (site ACTAGACCTCT)”, the “recombinant UMI read abundance (log10)” value was determined as 0.0176. As for “ACTAGACCATGGACCGGTTTTCCCGGTAATCCGTATTTGAG (site ACTAGAGCTCT)”, the figure is 0.0203. For the sequence “ACTAGACCATGGACCGGTTTTCCCGGTAATCCGTATTTGAG (site ACTAGATCTCT)”, the “recombinant UMI read abundance (log10)” value worked out at 1.02.

As to “ACTAGAGCATGGACCGGTTTTCCCGGTAATCCGTATTTGGT (site ACTAGAGCTAC)”, the “recombinant UMI read abundance (log10)” value was found to be 1.72. Take “ACTAGAGCATGGACCGGTTTTCCCGGTAATCCGTATTTGGT (site ACTAGCGCTAC)”: the “recombinant UMI read abundance (log10)” value stood at 0.398.

Consider “ACTAGAGCATGGACCGGTTTTCCCGGTAATCCGTATTTGGT (site ACTAGGGCTAC)”, for which the “recombinant UMI read abundance (log10)” value was found to be 0.647.

“ACTAGAGCATGGACCGGTTTTCCCGGTAATCCGTATTTGGT (site ACTAGTGCTAC)”: the “recombinant UMI read abundance (log10)” value was 0.4. On to “ACTAGTACATGGACCGGTTTTCCCGGTAATCCGTATTTGAC (site ACTAGTACTGT)”, for which the “recombinant UMI read abundance (log10)” value was 2.14. Take “ACTAGTCCATGGACCGGTTTTCCCGGTAATCCGTATTTGGT (site ACTAGTACTAC)”: the “recombinant UMI read abundance (log10)” value worked out at 0.0112.

“ACTAGTCCATGGACCGGTTTTCCCGGTAATCCGTATTTGGT (site ACTAGTCCTAC)”: the “recombinant UMI read abundance (log10)” value turned out to be 0.00473. Consider “ACTAGTCCATGGACCGGTTTTCCCGGTAATCCGTATTTGGT (site ACTAGTGCTAC)”, for which the “recombinant UMI read abundance (log10)” value amounted to 0.00689. In the case of “ACTAGTCCATGGACCGGTTTTCCCGGTAATCCGTATTTGGT (site ACTAGTTCTAC)”, the “recombinant UMI read abundance (log10)” value is 0.244. As for “ACTAGTGCATGGACCGGTTTTCCCGGTAATCCGTATTTGGC (site ACTAGTGCTAC)”, the figure is 0.0845; as for “ACTAGTGCATGGACCGGTTTTCCCGGTAATCCGTATTTGGC (site ACTAGTGCTCC)”, 0.0166; as for “ACTAGTGCATGGACCGGTTTTCCCGGTAATCCGTATTTGGC (site ACTAGTGCTGC)”, 2.6. The same measure for “ACTAGTGCATGGACCGGTTTTCCCGGTAATCCGTATTTGGC (site ACTAGTGCTTC)”: 0.32; for “ACTAGTGCATGGACCGGTTTTCCCGGTAATCCGTATTTGGT (site AATAGTGCTAC)”: 0.282; for “ACTAGTGCATGGACCGGTTTTCCCGGTAATCCGTATTTGGT (site ACAAGTGCTAC)”: 0.762. The same measure for “ACTAGTGCATGGACCGGTTTTCCCGGTAATCCGTATTTGGT (site ACCAGTGCTAC)”: 1.02. As to “ACTAGTGCATGGACCGGTTTTCCCGGTAATCCGTATTTGGT (site ACGAGTGCTAC)”, the “recombinant UMI read abundance (log10)” value amounted to 0.586. The same measure for “ACTAGTGCATGGACCGGTTTTCCCGGTAATCCGTATTTGGT (site ACTAATGCTAC)”: 0.409; for “ACTAGTGCATGGACCGGTTTTCCCGGTAATCCGTATTTGGT (site ACTACTGCTAC)”: 0.285; for “ACTAGTGCATGGACCGGTTTTCCCGGTAATCCGTATTTGGT (site ACTAGAGCTAC)”: 1.08. With “ACTAGTGCATGGACCGGTTTTCCCGGTAATCCGTATTTGGT (site ACTAGCGCTAC)”, the “recombinant UMI read abundance (log10)” value was 0.00815. In the case of “ACTAGTGCATGGACCGGTTTTCCCGGTAATCCGTATTTGGT (site ACTAGGGCTAC)”, the “recombinant UMI read abundance (log10)” value was 0.0226. The same measure for “ACTAGTGCATGGACCGGTTTTCCCGGTAATCCGTATTTGGT (site ACTAGTACTAC)”: 0.998; for “ACTAGTGCATGGACCGGTTTTCCCGGTAATCCGTATTTGGT (site ACTAGTCCTAC)”: 0.0182. As for “ACTAGTGCATGGACCGGTTTTCCCGGTAATCCGTATTTGGT (site ACTAGTGCTAA)”, the figure is 0.00318; as for “ACTAGTGCATGGACCGGTTTTCCCGGTAATCCGTATTTGGT (site ACTAGTGCTAC)”, 1.55; as for “ACTAGTGCATGGACCGGTTTTCCCGGTAATCCGTATTTGGT (site ACTAGTGCTAG)”, 0.699. As to “ACTAGTGCATGGACCGGTTTTCCCGGTAATCCGTATTTGGT (site ACTAGTGCTAT)”, the “recombinant UMI read abundance (log10)” value was determined as 1.2. On to “ACTAGTGCATGGACCGGTTTTCCCGGTAATCCGTATTTGGT (site ACTAGTGCTCC)”, for which the “recombinant UMI read abundance (log10)” value was determined as 0.0239.

Regarding “ACTAGTGCATGGACCGGTTTTCCCGGTAATCCGTATTTGGT (site ACTAGTGCTGC)”, the “recombinant UMI read abundance (log10)” value worked out at 0. As for “ACTAGTGCATGGACCGGTTTTCCCGGTAATCCGTATTTGGT (site ACTAGTGCTTC)”, the figure is 0.0165; as for “ACTAGTGCATGGACCGGTTTTCCCGGTAATCCGTATTTGGT (site ACTAGTTCTAC)”, 0.264. As to “ACTAGTGCATGGACCGGTTTTCCCGGTAATCCGTATTTGGT (site ACTATTGCTAC)”, the “recombinant UMI read abundance (log10)” value stood at 0.975.

In the case of “ACTAGTGCATGGACCGGTTTTCCCGGTAATCCGTATTTGGT (site ACTCGTGCTAC)”, the “recombinant UMI read abundance (log10)” value worked out at 0.265. Turning to “ACTAGTGCATGGACCGGTTTTCCCGGTAATCCGTATTTGGT (site ACTGGTGCTAC)”, the “recombinant UMI read abundance (log10)” value is 0.583. For “ACTAGTGCATGGACCGGTTTTCCCGGTAATCCGTATTTGGT (site ACTTGTGCTAC)”, the “recombinant UMI read abundance (log10)” value came to 0.26. As for “ACTAGTGCATGGACCGGTTTTCCCGGTAATCCGTATTTGGT (site AGTAGTGCTAC)”, the figure is 0.424; as for “ACTAGTGCATGGACCGGTTTTCCCGGTAATCCGTATTTGGT (site ATTAGTGCTAC)”, 1.01; as for “ACTAGTGCATGGACCGGTTTTCCCGGTAATCCGTATTTGGT (site CCTAGTGCTAC)”, 0.821.

Take “ACTAGTGCATGGACCGGTTTTCCCGGTAATCCGTATTTGGT (site GCTAGTGCTAC)”: the “recombinant UMI read abundance (log10)” value was 0.338. The same measure for “ACTAGTGCATGGACCGGTTTTCCCGGTAATCCGTATTTGGT (site TCTAGTGCTAC)”: 0.86; for “ACTAGTTCATGGACCGGTTTTCCCGGTAATCCGTATTTGGT (site ACTAGTACTAC)”: 0.293. The same measure for “ACTAGTTCATGGACCGGTTTTCCCGGTAATCCGTATTTGGT (site ACTAGTCCTAC)”: 0.0335; for “ACTAGTTCATGGACCGGTTTTCCCGGTAATCCGTATTTGGT (site ACTAGTGCTAC)”: 0.00523; for “ACTAGTTCATGGACCGGTTTTCCCGGTAATCCGTATTTGGT (site ACTAGTTCTAC)”: 1.89. As to “ACTCCAGCATGGACCGGTTTTCCCGGTAATCCGTATTTGCG (site ACTCCAGCTCG)”, the “recombinant UMI read abundance (log10)” value came to 0.0064.

For the sequence “ACTCCTGCATGGACCGGTTTTCCCGGTAATCCGTATTTGAC (site ACTCCTGCTGT)”, the “recombinant UMI read abundance (log10)” value is 0.671.

With “ACTCGAACATGGACCGGTTTTCCCGGTAATCCGTATTTGAG (site ACTAGAACTCT)”, the “recombinant UMI read abundance (log10)” value was found to be 0.00419.

The values are drawn from the supplement of paper PMC11208160.
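Also: IS621 bridge recombinase in Escherichia coli cells against a fixed T5 target plasmid.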
